Data published in paper PMC9486168, “Protein-protein interaction-based high throughput screening for adenylyl cyclase 1 inhibitors: Design, implementation, and discovery of a novel chemotype” (Frontiers in Pharmacology, 2022).
Like-named read-outs stand apart in the source and are kept apart here.

Key:
[1] = CellTiter-Glo 2.0 cell viability assay; assay type: cell-based; conditions: human, HEK293T cells, pH 7.4; for viability at 30 min: at the compound's AC1/CaM NanoBiT IC50 concentration, read-out: % Viable Cells at AC1 IC50;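 as to all read-outs here: luminescence read-out after 30 min compound exposure at 37 °C in HEPES-buffered HBSS, scaled to vehicle-treated cells as 100% and cell-free buffer wells as 0%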
[2] = target: T1, AC1 (Homo sapiens, UniProt Q08828); experiment: cAMP accumulation assay, AC1-HEK Δ3/6 KO cells; assay type: cell-based; conditions: for inhibition of AC1 activity (efficacy): initial characterization of hits, data not shown; for inhibition of AC1 activity: CDI analog set, maximal inhibition of A23187 response
T1 construct: expressed in transfected cells
T1 sequence (Q08828 whole entry): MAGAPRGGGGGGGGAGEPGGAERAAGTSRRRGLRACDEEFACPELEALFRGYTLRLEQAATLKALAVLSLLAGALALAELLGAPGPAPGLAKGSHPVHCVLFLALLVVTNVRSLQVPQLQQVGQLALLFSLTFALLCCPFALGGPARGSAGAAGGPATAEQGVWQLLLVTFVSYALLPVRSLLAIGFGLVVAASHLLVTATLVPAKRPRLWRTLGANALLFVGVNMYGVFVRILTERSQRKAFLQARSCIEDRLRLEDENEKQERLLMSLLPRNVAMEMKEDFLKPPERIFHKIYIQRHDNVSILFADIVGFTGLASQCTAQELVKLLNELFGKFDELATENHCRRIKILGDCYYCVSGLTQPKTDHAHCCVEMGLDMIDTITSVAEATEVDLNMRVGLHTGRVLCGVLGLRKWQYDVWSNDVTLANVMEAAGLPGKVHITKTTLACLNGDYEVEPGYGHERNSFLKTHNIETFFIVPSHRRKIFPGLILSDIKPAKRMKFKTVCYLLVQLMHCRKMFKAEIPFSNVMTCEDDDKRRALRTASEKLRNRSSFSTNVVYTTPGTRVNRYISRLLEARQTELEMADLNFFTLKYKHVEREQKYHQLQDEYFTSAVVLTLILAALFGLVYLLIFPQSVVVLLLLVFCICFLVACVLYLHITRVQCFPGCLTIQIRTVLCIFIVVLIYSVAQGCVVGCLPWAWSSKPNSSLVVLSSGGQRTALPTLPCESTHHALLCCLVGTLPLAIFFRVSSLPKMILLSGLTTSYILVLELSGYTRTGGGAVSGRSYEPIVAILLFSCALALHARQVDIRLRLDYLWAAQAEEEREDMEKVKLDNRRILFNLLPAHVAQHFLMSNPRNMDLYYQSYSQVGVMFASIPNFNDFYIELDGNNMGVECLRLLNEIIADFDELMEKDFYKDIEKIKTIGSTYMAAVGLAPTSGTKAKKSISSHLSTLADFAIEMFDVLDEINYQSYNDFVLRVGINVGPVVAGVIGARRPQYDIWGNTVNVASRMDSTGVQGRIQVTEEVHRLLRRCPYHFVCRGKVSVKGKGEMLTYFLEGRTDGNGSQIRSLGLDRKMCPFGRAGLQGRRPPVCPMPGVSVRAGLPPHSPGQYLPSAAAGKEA
Description: Cells were then incubated for 1 h at 37°C and 5% CO2. Cells were then treated with varying concentrations of inhibitors for 30 min, followed by treatment with calcium ionophore A23187 (3 μM) in 500 μM 3-isobutyl-1-methylxanthine (IBMX), a phosphodiesterase inhibitor, for 1 h at RT (Sigma Aldrich, St. Louis, MO). Finally, Cisbio HTRF detection reagents were added and incubated for 1–24 h at RT. Plates were read according to manufacturer’s protocol on an HTRF-compatible plate reader at 620 and 665 nm cAMP concentrations were interpolated from a cAMP standard curve. […] For cytotoxicity assays, compounds were tested at 30 μM and this protocol was used with the exception of detection reagents; CellTiter-Glo 2.0 reagent was used according to manufacturer’s protocol and luminescence was read on the Synergy Neo2 plate reader. Data are normalized to cells treated with vehicle (100%) or 2% tween (0%) and are represented as the percent of vehicle, from the average of three independent experiments (N = 3).

[3] = target: T2, AC1-C1b/CaM (Homo sapiens, UniProt P0DP23); experiment: AC1-C1b/CaM fluorescence polarization (FP) assay; assay type: binding; conditions: for IC50: 100 nM AC1-C1b, 100 nM GST-CaM, 95% CI in brackets; for AC1-CaM FP % inhib: relative to 100 μM CDZ (100% inhibition), highest concentration tested
T2 construct: made in house; host or cells: E. coli BL21-CodonPlus (DE3)-RIPL

[4] = target: T3, AC8/CaM PPI (Homo sapiens, UniProt P0DP23); experiment: AC8/CaM NanoBiT assay in HEK293T cells; assay type: cell-based, rat; conditions: for fold selective for AC8 over AC1 in the NanoBiT assay: AC8/CaM vs AC1/CaM NanoBiT; for IC50: HEK293T, thapsigargin-stimulated, AUC, read-out: Nanobit: AC8-CaM IC50 (μM ± SEM)
T3 construct: confirmed as an AC1/AC8 non-selective hit against full-length AC1- and AC8-CaM in the NanoBiT assay; The hCaM residues 1–149, residues 1–1,248 of rat AC8 (rAC8); expressed in transfected cells; host or cells: HEK293T, transient transfection

[5] = target: T4, AC1/CaM PPI (Homo sapiens, UniProt P0DP23); experiment: AC1/CaM NanoBiT assay in HEK293T cells; assay type: cell-based; conditions: HEK293T, thapsigargin-stimulated, AUC; read-out: Nanobit: AC1-CaM IC50 (μM ± SEM)
T4 construct: human AC1 (hAC1) residues 1–1,118 were cloned; The hCaM residues 1–149, residues 1–1,248 of rat AC8 (rAC8); expressed in transfected cells; host or cells: HEK293T, transient transfection

[6] = target: T5, AC8-C2b/CaM (Homo sapiens, UniProt P0DP23); experiment: AC8-C2b/CaM FP counterscreen assay; assay type: binding; conditions: for Ki (μM) AC8 C2b: Cheng-Prusoff from FP IC50 and Kd, n/i given where none; for Ki ratio (AC8-C2b/AC1): ratio >1: more potent in AC1/CaM FP;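 as to all read-outs here: fluorescence polarization of AC peptide binding to GST-CaM in HEPES buffer with KCl and 50 µM CaCl2, compound preincubated 30 min with GST-CaM, DMSO and calmidazolium as controls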
T5 construct: made in house; host or cells: E. coli BL21-CodonPlus (DE3)-RIPL

[7] = target: T6, AC8-Nt/CaM (Homo sapiens, UniProt P0DP23); experiment: AC8-Nt/CaM FP counterscreen assay; assay type: binding; conditions: for Ki (μM) AC8 NT: Cheng-Prusoff from FP IC50 and Kd, n/i given where none; for Ki ratio (AC8 NT/AC1): ratio >1: more potent in AC1/CaM FP;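 as to all read-outs here: fluorescence polarization of AC peptide binding GST-CaM in HEPES buffer with CaCl2, compound preincubated with CaM 30 min, peptide read after 2 h at room temperature in dark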
T6 construct: made in house; host or cells: E. coli BL21-CodonPlus (DE3)-RIPL

[8] = target: T7, CaM (Homo sapiens, UniProt P0DP23); experiment: 1H-15N HSQC NMR of 15N-CaM with compound; assay type: binding; conditions: 5 equivalent molar excess over 100 μM CaM
T7 construct: 6X-His-GST (N, cleaved yes); made in house; host or cells: E. coli BL21-CodonPlus (DE3)-RIPL in M9 minimal media with 15NH4Cl
Description: All NMR samples contained 100 μM ^15N-CaM in 20 mM HEPES pH 7.4, 100 mM KCl, 10 mM CaCl2, 10% D2O, and 5% DMSO. Initial spectra were collected for CaM alone before individual compounds were titrated to observe chemical shift perturbations. All spectra were acquired at 298 K using a 600 MHz Bruker Avance NEO NMR spectrometer with a triple resonance gradient cryoprobe. NMR spectra were processed using NMRPipe and analyzed using NMRFAM-SPARKY.

[9] = target: T8, AC5 (Homo sapiens, UniProt O95622); experiment: cAMP accumulation assay, AC5-HEK Δ3/6 KO cells; assay type: cell-based; conditions: for inhibition at 30 µM: read-out: % Inhibited at AC5 ± SEM
T8 construct: expressed in transfected cells
T8 sequence (O95622 whole entry, species assumed): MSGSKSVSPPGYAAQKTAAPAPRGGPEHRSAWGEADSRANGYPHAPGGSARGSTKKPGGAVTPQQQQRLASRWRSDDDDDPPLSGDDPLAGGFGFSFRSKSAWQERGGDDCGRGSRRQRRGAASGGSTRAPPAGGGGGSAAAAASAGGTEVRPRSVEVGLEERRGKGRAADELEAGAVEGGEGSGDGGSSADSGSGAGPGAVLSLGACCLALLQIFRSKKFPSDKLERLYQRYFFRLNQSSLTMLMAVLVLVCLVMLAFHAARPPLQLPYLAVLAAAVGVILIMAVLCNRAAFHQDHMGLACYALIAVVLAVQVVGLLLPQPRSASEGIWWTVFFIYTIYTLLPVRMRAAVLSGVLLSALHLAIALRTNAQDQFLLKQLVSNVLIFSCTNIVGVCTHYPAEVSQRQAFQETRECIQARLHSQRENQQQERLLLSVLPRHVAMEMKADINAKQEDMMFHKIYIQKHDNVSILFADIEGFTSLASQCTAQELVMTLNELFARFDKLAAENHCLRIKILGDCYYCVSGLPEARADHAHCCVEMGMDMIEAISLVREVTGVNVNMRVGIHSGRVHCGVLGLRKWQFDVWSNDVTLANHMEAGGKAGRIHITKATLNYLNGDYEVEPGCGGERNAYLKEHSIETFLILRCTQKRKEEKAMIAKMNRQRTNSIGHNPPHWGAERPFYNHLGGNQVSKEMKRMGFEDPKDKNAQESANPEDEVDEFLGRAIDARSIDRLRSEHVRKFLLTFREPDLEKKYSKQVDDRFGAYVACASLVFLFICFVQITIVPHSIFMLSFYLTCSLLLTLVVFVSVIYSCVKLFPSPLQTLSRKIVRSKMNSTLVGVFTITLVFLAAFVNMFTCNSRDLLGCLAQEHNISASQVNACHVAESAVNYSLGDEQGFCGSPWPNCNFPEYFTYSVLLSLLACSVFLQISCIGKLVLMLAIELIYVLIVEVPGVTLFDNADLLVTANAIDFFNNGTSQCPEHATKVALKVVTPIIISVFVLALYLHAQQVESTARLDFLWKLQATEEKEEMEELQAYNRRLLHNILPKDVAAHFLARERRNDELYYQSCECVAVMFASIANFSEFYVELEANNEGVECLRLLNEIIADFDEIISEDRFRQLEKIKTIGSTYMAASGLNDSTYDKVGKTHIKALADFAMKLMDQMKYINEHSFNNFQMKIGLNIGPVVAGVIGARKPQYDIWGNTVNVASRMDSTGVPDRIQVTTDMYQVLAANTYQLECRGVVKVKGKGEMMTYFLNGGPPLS
Description: (§1) Cryopreserved HEK293 cells with AC3 and AC6 knocked out, and stably expressing AC1, AC2, AC5, or AC8 (AC1-HEK Δ3/6 KO, AC2-HEK Δ3/6 KO, AC5-HEK Δ3/6 KO, or AC8-HEK Δ3/6 KO cells, respectively; [Soto-Velasquez et al., 2018]) were plated at 5,000 cells/well. Cells were then incubated for 1 h at 37°C and 5% CO2. Cells were then treated with varying concentrations of inhibitors for 30 min, followed by treatment with calcium ionophore A23187 (3 μM) in 500 μM 3-isobutyl-1-methylxanthine (IBMX), a phosphodiesterase inhibitor, for 1 h at RT (Sigma Aldrich, St. Louis, MO). Finally, Cisbio HTRF detection reagents were added and incubated for 1–24 h at RT. Plates were read according to manufacturer’s protocol on an HTRF-compatible plate reader at 620 and 665 nm cAMP concentrations were interpolated from a cAMP standard curve. […] For cytotoxicity assays, compounds were tested at 30 μM and this protocol was used with the exception of detection reagents; CellTiter-Glo 2.0 reagent was used according to manufacturer’s protocol and luminescence was read on the Synergy Neo2 plate reader. Data are normalized to cells treated with vehicle (100%) or 2% tween (0%) and are represented as the percent of vehicle, from the average of three independent experiments (N = 3).

[10] = target: T9, AC2 (Homo sapiens, UniProt Q08462); experiment: cAMP accumulation assay, AC2-HEK Δ3/6 KO cells; assay type: cell-based; conditions: for % Inhibited at AC2 ± SEM: 30 μM; for inhibition at 30 µM: read-out: % Inhibited at AC2 ± SEM
T9 construct: expressed in transfected cells
T9 sequence (Q08462 whole entry): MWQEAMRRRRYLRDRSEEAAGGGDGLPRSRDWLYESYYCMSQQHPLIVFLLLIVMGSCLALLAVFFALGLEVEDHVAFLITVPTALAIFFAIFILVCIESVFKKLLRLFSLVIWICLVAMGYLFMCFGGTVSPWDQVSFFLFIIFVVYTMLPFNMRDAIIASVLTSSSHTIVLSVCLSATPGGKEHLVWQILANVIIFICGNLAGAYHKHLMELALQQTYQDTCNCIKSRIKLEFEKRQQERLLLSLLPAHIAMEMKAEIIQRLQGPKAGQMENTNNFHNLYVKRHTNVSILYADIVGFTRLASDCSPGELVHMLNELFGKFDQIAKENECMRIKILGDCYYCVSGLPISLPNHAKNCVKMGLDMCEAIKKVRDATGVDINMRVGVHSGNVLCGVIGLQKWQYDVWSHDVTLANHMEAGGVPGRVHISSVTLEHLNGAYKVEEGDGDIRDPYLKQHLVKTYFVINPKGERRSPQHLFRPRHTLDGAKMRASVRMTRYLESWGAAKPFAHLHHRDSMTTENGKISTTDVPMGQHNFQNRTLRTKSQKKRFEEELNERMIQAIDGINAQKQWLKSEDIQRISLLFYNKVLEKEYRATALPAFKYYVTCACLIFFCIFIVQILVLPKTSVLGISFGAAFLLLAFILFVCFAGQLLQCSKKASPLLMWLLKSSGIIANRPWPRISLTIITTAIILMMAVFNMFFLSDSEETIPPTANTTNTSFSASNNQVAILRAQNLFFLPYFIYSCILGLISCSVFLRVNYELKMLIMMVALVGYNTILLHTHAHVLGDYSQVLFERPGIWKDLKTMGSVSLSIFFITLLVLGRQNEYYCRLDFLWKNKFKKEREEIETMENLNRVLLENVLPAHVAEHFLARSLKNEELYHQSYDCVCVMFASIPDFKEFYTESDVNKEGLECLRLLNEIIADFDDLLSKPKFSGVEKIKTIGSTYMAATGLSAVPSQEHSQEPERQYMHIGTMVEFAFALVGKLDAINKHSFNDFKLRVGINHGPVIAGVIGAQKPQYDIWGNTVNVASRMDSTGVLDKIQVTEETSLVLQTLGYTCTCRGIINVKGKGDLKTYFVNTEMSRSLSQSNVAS
Description: as §1

[11] = Cytotoxicity assay (CellTiter-Glo 2.0) in AC1-HEK Δ3/6 KO cells; assay type: cell-based; conditions: human, percent of vehicle, read-out: % Viable Cells at AC1 30 μM
Description: as §1

[12] = target: T10, AC8 (Homo sapiens, UniProt P40145); experiment: cAMP accumulation assay, AC8-HEK Δ3/6 KO cells; assay type: cell-based; conditions: CDI analog SAR set, 3 μM A23187; read-out: IC50 (μM) ± SEM AC8
T10 construct: expressed in transfected cells
T10 sequence (P40145 whole entry, species assumed): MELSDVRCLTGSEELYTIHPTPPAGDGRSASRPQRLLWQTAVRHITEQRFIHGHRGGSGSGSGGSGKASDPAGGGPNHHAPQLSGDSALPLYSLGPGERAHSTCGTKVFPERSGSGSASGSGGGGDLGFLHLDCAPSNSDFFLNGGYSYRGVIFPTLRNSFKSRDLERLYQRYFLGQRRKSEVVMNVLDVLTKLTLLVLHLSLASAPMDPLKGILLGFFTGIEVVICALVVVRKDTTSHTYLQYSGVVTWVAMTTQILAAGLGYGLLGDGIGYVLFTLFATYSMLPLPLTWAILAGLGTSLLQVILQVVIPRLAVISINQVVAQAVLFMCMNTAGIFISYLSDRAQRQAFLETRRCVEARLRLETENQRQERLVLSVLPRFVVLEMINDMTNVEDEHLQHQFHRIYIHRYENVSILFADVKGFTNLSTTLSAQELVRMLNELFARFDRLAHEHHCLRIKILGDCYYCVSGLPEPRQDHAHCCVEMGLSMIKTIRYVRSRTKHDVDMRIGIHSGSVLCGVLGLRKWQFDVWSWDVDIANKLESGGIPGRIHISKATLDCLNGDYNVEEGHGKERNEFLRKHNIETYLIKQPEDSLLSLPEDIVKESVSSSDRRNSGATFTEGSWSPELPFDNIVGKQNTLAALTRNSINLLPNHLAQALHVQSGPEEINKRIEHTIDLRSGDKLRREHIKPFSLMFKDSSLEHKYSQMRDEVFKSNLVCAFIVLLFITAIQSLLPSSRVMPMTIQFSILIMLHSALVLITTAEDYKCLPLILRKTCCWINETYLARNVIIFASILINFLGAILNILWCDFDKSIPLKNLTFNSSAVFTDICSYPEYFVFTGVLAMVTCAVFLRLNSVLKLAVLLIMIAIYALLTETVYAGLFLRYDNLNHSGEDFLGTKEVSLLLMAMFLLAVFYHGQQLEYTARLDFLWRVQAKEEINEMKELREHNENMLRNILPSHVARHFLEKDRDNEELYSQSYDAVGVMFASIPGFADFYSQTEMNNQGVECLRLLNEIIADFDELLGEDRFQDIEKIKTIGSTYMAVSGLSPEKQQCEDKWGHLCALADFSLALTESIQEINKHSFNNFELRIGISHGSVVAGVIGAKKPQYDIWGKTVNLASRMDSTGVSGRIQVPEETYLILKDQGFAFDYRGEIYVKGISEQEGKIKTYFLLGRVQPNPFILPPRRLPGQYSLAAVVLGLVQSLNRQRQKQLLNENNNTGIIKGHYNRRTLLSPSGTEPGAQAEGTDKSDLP
Description: as §1

[13] = initial examination, 10,000 cells per well, 3 μM A23187, 1 h RT, read-out: AC1 IC50 ± SEM
[14] = CDI analog SAR set, 3 μM A23187, read-out: IC50 (μM) ± SEM AC1

| Compound | inhibition of AC1 activity (efficacy) [2] [%] | IC50 [2, 13] [µM] | IC50 [3] [µM] | AC1-CaM FP % inhib [3] [%] | fold selective for AC8 over AC1 in the NanoBiT assay [4] | IC50 [4] [µM] | IC50 [5] [µM] | Ki (μM) AC8 C2b [6] | Ki ratio (AC8-C2b/AC1) [6] | Ki (μM) AC8 NT [7] | Ki ratio (AC8 NT/AC1) [7] | chemical shift perturbations (CSP) of 15N-CaM [8] | inhibition at 30 µM [9] [%] | IC50 [2, 14] [µM] | inhibition of AC1 activity [2] [%] | % Inhibited at AC2 ± SEM [10] [%] | inhibition at 30 µM [10] [%] | IC50 [12] [µM] | viability at 30 min [1] [%] | viability at 30 min, 30 μM [11] [%] | further results |
| --- | --- | --- | --- | --- | --- | --- | --- | --- | --- | --- | --- | --- | --- | --- | --- | --- | --- | --- | --- | --- | --- |
| O=S(=O)(Nc1ccc2c(c1)N(S(=O)(=O)c1ccc(F)cc1)CCC2)c1cccc(F)c1 [Compound 18] | ~70 | 6.7 ± 0.7 | 38.4 | 54 | ~3 fold | 5.71 ± 1.22 | 16.1 ± 1.12 | n/i | AC1 Selective | n/i | AC1 Selective | modest chemical shift changes | – | – | – | – | – | – | 100 | – | viability at 30 min, 316 µM ([1]; 316 μM, read-out: cell viability at highest concentration tested): 90%; Ki ([3]; Cheng-Prusoff from FP IC50 and Kd): 9.1 µM |
| Cn1cc(C(=O)Nc2ccc(Cl)cc2Cl)c2[nH]c(=O)n(-c3ccc(Cl)cc3)c(=O)c21 [Compound 21] | ~50 | 8.77 ± 4.47 | 9.9 | 59 | 2- to 4 fold | 6.8 ± 1.19 | 25.6 ± 1.42 | n/i | AC1 Selective | n/i | AC1 Selective | modest chemical shift changes | – | – | – | – | – | – | 100 | – | – |

The next lines start with results.

| inhibition of AC1 activity (efficacy) [2] [%] | IC50 [2, 13] [µM] | IC50 [3] [µM] | AC1-CaM FP % inhib [3] [%] | fold selective for AC8 over AC1 in the NanoBiT assay [4] | IC50 [4] [µM] | IC50 [5] [µM] | Ki (μM) AC8 C2b [6] | Ki ratio (AC8-C2b/AC1) [6] | Ki (μM) AC8 NT [7] | Ki ratio (AC8 NT/AC1) [7] | chemical shift perturbations (CSP) of 15N-CaM [8] | inhibition at 30 µM [9] [%] | IC50 [2, 14] [µM] | inhibition of AC1 activity [2] [%] | % Inhibited at AC2 ± SEM [10] [%] | inhibition at 30 µM [10] [%] | IC50 [12] [µM] | Compound | viability at 30 min [1] [%] | viability at 30 min, 30 μM [11] [%] | further results |
| --- | --- | --- | --- | --- | --- | --- | --- | --- | --- | --- | --- | --- | --- | --- | --- | --- | --- | --- | --- | --- | --- |
| – | – | – | – | – | – | – | – | – | – | – | – | < 16 | 2.75 ± 0.82 | 100 | 15 ± 11 | < 16 | 2.7 ± 0.24 | CCc1cc(C(c2cccs2)N2CCC(C)CC2)c(NC(=O)c2ccco2)s1 (stereo not drawn) [Compound 24] | – | 77 | % Inhibited at AC5 ± SEM ([9]; 30 μM): 16 ± 11% |
| – | – | – | – | – | – | – | – | – | – | – | – | 46 ± 5 | 6.39 ± 0.89 | 100 | – | 52 ± 11 | 8.85 ± 2.7 | Cc1cc(C(c2cccs2)N2CCN(C)CC2)c(NC(=O)c2ccco2)s1 (stereo not drawn) [Compound 25] | – | 94 | – |
| – | – | – | – | – | – | – | – | – | – | – | – | – | 0.89 ± 0.04 | 100 | 10 ± 8 | < 16 | 1.86 ± 0.32 | O=C(Nc1sc2c(c1C(c1cccs1)N1CCOCC1)CCCC2)c1ccco1 (stereo not drawn) [Compound 32] | – | 100 | – |
